Columns and labels:
CDK12/CycK = CDK12/CycK (Homo sapiens, UniProt Q9NYV4); experiment: Inhibition of CDK12 (ADP-Glo kinase assay); assay type: biochemical; conditions: 60 nM CDK12/CycK, 30 minutes pre-incubation, 1 μM ATP, 0.5 μM RBER-IRStide substrate, 1 h at 25° C., read-out: CDK12/cyclin K IC50
Procedure, shortened: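 Compounds pre-incubated 30 min with 60 nM CDK12/CycK in HEPES pH 7.5 buffer with Mg2+/Mn2+, 1% DMSO final. Reaction started with 1 μM ATP and 0.5 μM RBER-IRStide, run 1 h at 25 °C; ADP-Glo luminescence, no-kinase blank subtracted, IC50 from sigmoidal fit of % inhibition.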

DM1 fibroblasts = experiment: Nuclear foci assay; assay type: cell-based; conditions: Fibroblast; DM1 fibroblasts treated for 24 hours, 11 point dilution 20 μM-19 nM, in situ hybridisation with cy3 labelled CAG10 probe
Procedure: DM1 fibroblasts were treated with compounds in an 11 point dilution series from 20 μM-19 nM for 24 hours. Following treatment, fluorescent in situ hybridisation was performed with a cy3 labelled CAG10 probe, to visualize nuclear foci and cells were analysed on a Molecular Devices plate reader with customised MetaExpress software (Ketley, A. et al. (2014). Hum Mol Genet, 23: 1551-1562). Compounds that reduced nuclear foci in a concentration dependent manner, compared to DMSO treated cells were identified.

Chain of CDK12/CycK (Q9NYV4 whole entry): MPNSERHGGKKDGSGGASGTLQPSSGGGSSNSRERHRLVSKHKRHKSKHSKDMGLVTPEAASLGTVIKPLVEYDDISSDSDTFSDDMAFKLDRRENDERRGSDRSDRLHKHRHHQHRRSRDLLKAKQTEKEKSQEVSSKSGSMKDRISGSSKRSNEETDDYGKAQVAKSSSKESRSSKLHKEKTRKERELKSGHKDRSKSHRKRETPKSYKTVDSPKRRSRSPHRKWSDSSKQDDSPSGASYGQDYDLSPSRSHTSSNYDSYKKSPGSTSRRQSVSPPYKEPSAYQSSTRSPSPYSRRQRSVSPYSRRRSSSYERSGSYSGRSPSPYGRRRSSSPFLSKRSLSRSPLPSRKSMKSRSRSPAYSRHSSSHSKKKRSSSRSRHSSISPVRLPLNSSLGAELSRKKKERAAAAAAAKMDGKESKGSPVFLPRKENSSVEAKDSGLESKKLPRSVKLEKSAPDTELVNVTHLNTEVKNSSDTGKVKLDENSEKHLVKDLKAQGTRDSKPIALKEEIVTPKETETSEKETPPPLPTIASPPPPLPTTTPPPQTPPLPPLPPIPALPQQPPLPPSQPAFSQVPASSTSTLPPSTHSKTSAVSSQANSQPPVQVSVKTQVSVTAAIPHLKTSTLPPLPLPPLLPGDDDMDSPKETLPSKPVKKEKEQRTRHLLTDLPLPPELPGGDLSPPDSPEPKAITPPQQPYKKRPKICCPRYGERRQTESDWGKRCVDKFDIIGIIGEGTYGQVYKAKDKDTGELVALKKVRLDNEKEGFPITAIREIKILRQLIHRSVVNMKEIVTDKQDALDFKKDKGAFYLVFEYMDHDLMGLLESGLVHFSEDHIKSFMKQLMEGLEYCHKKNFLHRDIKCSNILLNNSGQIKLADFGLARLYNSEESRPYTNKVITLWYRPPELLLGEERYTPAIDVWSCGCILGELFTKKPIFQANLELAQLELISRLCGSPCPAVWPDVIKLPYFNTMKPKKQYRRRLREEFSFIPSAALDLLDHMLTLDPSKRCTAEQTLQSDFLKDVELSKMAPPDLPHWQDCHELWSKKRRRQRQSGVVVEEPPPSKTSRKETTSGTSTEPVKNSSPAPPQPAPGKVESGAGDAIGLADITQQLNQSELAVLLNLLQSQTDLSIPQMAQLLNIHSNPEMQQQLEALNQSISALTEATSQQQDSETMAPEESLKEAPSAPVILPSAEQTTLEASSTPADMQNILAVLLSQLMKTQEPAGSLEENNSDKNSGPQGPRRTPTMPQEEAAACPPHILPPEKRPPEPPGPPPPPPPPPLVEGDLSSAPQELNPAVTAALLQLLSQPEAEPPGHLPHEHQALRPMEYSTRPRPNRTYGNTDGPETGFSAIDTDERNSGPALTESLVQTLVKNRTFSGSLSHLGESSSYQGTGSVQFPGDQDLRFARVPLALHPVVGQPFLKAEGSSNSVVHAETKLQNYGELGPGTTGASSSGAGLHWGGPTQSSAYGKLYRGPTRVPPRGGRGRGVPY
Chain of CDK12/CycK (O75909 whole entry partner): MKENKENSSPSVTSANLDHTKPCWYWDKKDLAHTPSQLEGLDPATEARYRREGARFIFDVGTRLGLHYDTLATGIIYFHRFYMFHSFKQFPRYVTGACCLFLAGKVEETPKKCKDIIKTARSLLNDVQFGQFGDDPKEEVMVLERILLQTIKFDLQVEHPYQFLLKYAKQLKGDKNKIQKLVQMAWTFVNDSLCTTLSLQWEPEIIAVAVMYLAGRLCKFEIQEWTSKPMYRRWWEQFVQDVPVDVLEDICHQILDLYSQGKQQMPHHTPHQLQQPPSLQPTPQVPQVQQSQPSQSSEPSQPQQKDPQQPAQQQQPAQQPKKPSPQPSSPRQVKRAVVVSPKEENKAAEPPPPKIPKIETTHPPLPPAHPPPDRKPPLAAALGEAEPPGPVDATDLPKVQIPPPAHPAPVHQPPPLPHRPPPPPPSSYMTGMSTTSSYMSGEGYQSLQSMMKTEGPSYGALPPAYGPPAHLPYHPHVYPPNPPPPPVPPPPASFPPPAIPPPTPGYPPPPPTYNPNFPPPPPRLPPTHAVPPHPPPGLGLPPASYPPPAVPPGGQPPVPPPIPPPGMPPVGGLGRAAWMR

Compound	IC50 (CDK12/CycK)	IC50 (DM1 fibroblasts)
C=CC(=O)N1CCOC[C@@H]1C(=O)NCCc1cc2c(-c3cnn4ncccc34)ccnc2[nH]1 [Example 63, (R)-4-Acryloyl-N-(2-(4-(pyrazolo[1,5-b]pyridazin-3-yl)-1H-pyrrolo[2,3-b]pyridin-2-yl)ethyl)morpholine-3-carboxamide]	< 100 nM	< 1000 nM
C=CC(=O)N1CCC[C@H](C(=O)NCCc2cc3c(-c4cnn5ncccc45)c(Cl)cnc3[nH]2)C1 [Example 55, (S)-1-Acryloyl-N-(2-(5-chloro-4-(pyrazolo[1,5-b]pyridazin-3-yl)-1H-pyrrolo[2,3-b]pyridin-2-yl)ethyl)piperidine-3-carboxamide]	< 100 nM	1000 to 10000 nM
OCc1cc2c(-c3cnn4ncccc34)ccnc2[nH]1 [Example 11, (4-(Pyrazolo[1,5-b]pyridazin-3-yl)-1H-pyrrolo[2,3-b]pyridin-2-yl)methanol]	100 to 1000 nM	1000 to 10000 nM
c1cnn2ncc(-c3ccnc4[nH]ccc34)c2c1 [Example 28, 3-(1H-Pyrrolo[2,3-b]pyridin-4-yl)pyrazolo[1,5-b]pyridazine]	100 to 1000 nM	< 1000 nM
C=CC(=O)N1CC(C(=O)NCCc2cc3c(-c4cnn5ncccc45)ccnc3[nH]2)C1 [Example 37, 1-Acryloyl-N-(2-(4-(pyrazolo[1,5-b]pyridazin-3-yl)-1H-pyrrolo[2,3-b]pyridin-2-yl)ethyl)azetidine-3-carboxamide]	< 100 nM	1000 to 10000 nM
C[C@@H](Cl)C(=O)N1CCC[C@@H]1C(=O)N1CCC(c2cc3c(-c4cnn5ncccc45)ccnc3[nH]2)C1 (stereo partly drawn) [Example 70, (2R)-2-Chloro-1-((2R)-2-(3-(4-(pyrazolo[1,5-b]pyridazin-3-yl)-1H-pyrrolo[2,3-b]pyridin-2-yl)pyrrolidine-1-carbonyl)pyrrolidin-1-yl)propan-1-one]	100 to 1000 nM	1000 to 10000 nM
O=C([C@H]1CCCN1C(=O)CCl)N1CCC(c2cc3c(-c4cnn5ncccc45)ccnc3[nH]2)C1 (stereo partly drawn) [Example 156, 2-Chloro-1-((2R)-2-(3-(4-(pyrazolo[1,5-b]pyridazin-3-yl)-1H-pyrrolo[2,3-b]pyridin-2-yl)pyrrolidine-1-carbonyl)pyrrolidin-1-yl)ethan-1-one]	< 100 nM	< 1000 nM
C=CC(=O)N1C[C@H](F)C[C@H]1C(=O)NCCc1cc2c(-c3cnn4ncccc34)ccnc2[nH]1 [Example 207, (2S,4R)-1-Acryloyl-4-fluoro-N-(2-(4-(pyrazolo[1,5-b]pyridazin-3-yl)-1H-pyrrolo[2,3-b]pyridin-2-yl)ethyl)pyrrolidine-2-carboxamide]	< 100 nM	< 1000 nM
C=CC(=O)N1CCC[C@@H]1C(=O)NCCc1cc2c(-c3cnn4ncccc34)c(Cl)cnc2[nH]1 [Example 54, (R)-1-Acryloyl-N-(2-(5-chloro-4-(pyrazolo[1,5-b]pyridazin-3-yl)-1H-pyrrolo[2,3-b]pyridin-2-yl)ethyl)pyrrolidine-2-carboxamide]	< 100 nM	< 1000 nM
C=CC(=O)N1CCC1C(=O)NCCc1cc2c(-c3cnn4ncccc34)ccnc2[nH]1 (single isomer, unassigned) [Example 39]	< 100 nM	< 1000 nM
COc1ccc2c(-c3ccnc4[nH]ccc34)cnn2n1 [Example 22, 6-Methoxy-3-(1H-pyrrolo[2,3-b]pyridin-4-yl)pyrazolo[1,5-b]pyridazine]	1000 to 30000 nM	10000 to 100000 nM
CN(C)C/C=C/C(=O)N1CCC[C@H]1C(=O)NCCc1cc2c(-c3cnn4ncccc34)ccnc2[nH]1 [Example 84, (S,E)-1-(4-(Dimethylamino)but-2-enoyl)-N-(2-(4-(pyrazolo[1,5-b]pyridazin-3-yl)-1H-pyrrolo[2,3-b]pyridin-2-yl)ethyl)pyrrolidine-2-carboxamide]	1000 to 30000 nM	10000 to 100000 nM
NC(=O)c1cc2c(-c3cnn4ncccc34)ccnc2[nH]1 [Example 6, 4-(Pyrazolo[1,5-b]pyridazin-3-yl)-1H-pyrrolo[2,3-b]pyridine-2-carboxamide]	100 to 1000 nM	1000 to 10000 nM
C=CC(=O)N1CCC[C@@H]1C(=O)NCCc1cc2c(-c3cnn4ncccc34)ccnc2[nH]1 [Example 33, (R)-1-Acryloyl-N-(2-(4-(pyrazolo[1,5-b]pyridazin-3-yl)-1H-pyrrolo[2,3-b]pyridin-2-yl)ethyl)pyrrolidine-2-carboxamide]	< 100 nM	< 1000 nM
C=CC(=O)N1CCC[C@H]1C(=O)N1CCN(Cc2cc3c(-c4cnn5ncccc45)ccnc3[nH]2)CC1 [Example 113, (S)-1-(2-(4-((4-(Pyrazolo[1,5-b]pyridazin-3-yl)-1H-pyrrolo[2,3-b]pyridin-2-yl)methyl)piperazine-1-carbonyl)pyrrolidin-1-yl)prop-2-en-1-one]	1000 to 30000 nM	10000 to 100000 nM
C=CC(=O)N1CCC[C@H]1C(=O)OCCc1cc2c(-c3cnn4ncccc34)ccnc2[nH]1 [Example 213, 2-(4-(Pyrazolo[1,5-b]pyridazin-3-yl)-1H-pyrrolo[2,3-b]pyridin-2-yl)ethyl acryloyl-L-prolinate]	100 to 1000 nM	< 1000 nM
c1ccc(Cc2cc3c(-c4cnn5ncccc45)ccnc3[nH]2)cc1 [Example 10, 3-(2-Benzyl-1H-pyrrolo[2,3-b]pyridin-4-yl)pyrazolo[1,5-b]pyridazine]	1000 to 30000 nM	10000 to 100000 nM
CN(C)C/C=C/C(=O)N1CCCC[C@H]1C(=O)NCCc1cc2c(-c3cnn4ncccc34)ccnc2[nH]1 [Example 87, (S,E)-1-(4-(Dimethylamino)but-2-enoyl)-N-(2-(4-(pyrazolo[1,5-b]pyridazin-3-yl)-1H-pyrrolo[2,3-b]pyridin-2-yl)ethyl)piperidine-2-carboxamide]	1000 to 30000 nM	
C=CC(=O)N1CCC[C@H]1C(=O)N1CCC(c2cc3c(-c4cnn5ncccc45)ccnc3[nH]2)CC1 [Example 194, (S)-1-(2-(4-(4-(Pyrazolo[1,5-b]pyridazin-3-yl)-1H-pyrrolo[2,3-b]pyridin-2-yl)piperidine-1-carbonyl)pyrrolidin-1-yl)prop-2-en-1-one]	< 100 nM	

The next lines start with results.

IC50 (CDK12/CycK)	Compound	IC50 (DM1 fibroblasts)
< 100 nM	O=C(CCl)Nc1cccc(C(=O)N2CCC(c3cc4c(-c5cnn6ncccc56)ccnc4[nH]3)C2)c1 (centres unmarked) [Example 145, 2-Chloro-N-(3-(3-(4-(pyrazolo[1,5-b]pyridazin-3-yl)-1H-pyrrolo[2,3-b]pyridin-2-yl)pyrrolidine-1-carbonyl)phenyl)acetamide]	< 1000 nM
100 to 1000 nM	C=CC(=O)N1CCC[C@H]1C(=O)N1CC[C@@H](c2cc3c(-c4cnn5ncccc45)ccnc3[nH]2)C1 [Example 161, 1-((S)-2-((R)-3-(4-(Pyrazolo[1,5-b]pyridazin-3-yl)-1H-pyrrolo[2,3-b]pyridin-2-yl)pyrrolidine-1-carbonyl)pyrrolidin-1-yl)prop-2-en-1-one]	< 1000 nM
100 to 1000 nM	C=CC(=O)Nc1cccc(C(=O)N2CCN(Cc3cc4c(-c5cnn6ncccc56)ccnc4[nH]3)CC2)c1 [Example 111, N-(3-(4-((4-(Pyrazolo[1,5-b]pyridazin-3-yl)-1H-pyrrolo[2,3-b]pyridin-2-yl)methyl)piperazine-1-carbonyl)phenyl)acrylamide]	1000 to 10000 nM
100 to 1000 nM	C=CC(=O)Nc1ccc(C(=O)N2CCN(Cc3cc4c(-c5cnn6ncccc56)ccnc4[nH]3)CC2)cc1 [Example 112, N-(4-(4-((4-(Pyrazolo[1,5-b]pyridazin-3-yl)-1H-pyrrolo[2,3-b]pyridin-2-yl)methyl)piperazine-1-carbonyl)phenyl)acrylamide]	1000 to 10000 nM
< 100 nM	C=CC(=O)Nc1ccc(C(=O)NCCc2cc3c(-c4cnn5ncccc45)ccnc3[nH]2)cc1 [Example 76, 4-Acrylamido-N-(2-(4-(pyrazolo[1,5-b]pyridazin-3-yl)-1H-pyrrolo[2,3-b]pyridin-2-yl)ethyl)benzamide]	< 1000 nM
< 100 nM	C=CC(=O)Nc1cccc(C(=O)NCCc2cc3c(-c4cnn5ncccc45)ccnc3[nH]2)c1 [Example 36, 3-Acrylamido-N-(2-(4-(pyrazolo[1,5-b]pyridazin-3-yl)-1H-pyrrolo[2,3-b]pyridin-2-yl)ethyl)benzamide]	< 1000 nM
< 100 nM	C=CC(=O)Nc1ccc(C(=O)N2CCC(c3cc4c(-c5cnn6ncccc56)ccnc4[nH]3)C2)cc1 (centres unmarked) [Example 126, N-(4-(3-(4-(Pyrazolo[1,5-b]pyridazin-3-yl)-1H-pyrrolo[2,3-b]pyridin-2-yl)pyrrolidine-1-carbonyl)phenyl)acrylamide]	< 1000 nM
< 100 nM	C=CC(=O)Nc1cc(C(=O)N2CCC(c3cc4c(-c5cnn6ncccc56)ccnc4[nH]3)C2)ccc1OC (centres unmarked) [Example 204, N-(2-Methoxy-5-(3-(4-(pyrazolo[1,5-b]pyridazin-3-yl)-1H-pyrrolo[2,3-b]pyridin-2-yl)pyrrolidine-1-carbonyl)phenyl)acrylamide]	< 1000 nM
< 100 nM	C=CC(=O)Nc1cccc(C(=O)N2CCC(c3cc4c(-c5cnn6ncccc56)ccnc4[nH]3)C2)c1 (centres unmarked) [Example 141, N-(3-(3-(4-(Pyrazolo[1,5-b]pyridazin-3-yl)-1H-pyrrolo[2,3-b]pyridin-2-yl)pyrrolidine-1-carbonyl)phenyl)acrylamide]	< 1000 nM
< 100 nM	O=C(CCl)Nc1cccc(C(=O)N2CC[C@H](c3cc4c(-c5cnn6ncccc56)ccnc4[nH]3)C2)c1 [Example 160, (S)-2-Chloro-N-(3-(3-(4-(pyrazolo[1,5-b]pyridazin-3-yl)-1H-pyrrolo[2,3-b]pyridin-2-yl)pyrrolidine-1-carbonyl)phenyl)acetamide]	< 1000 nM
